Data reported in patent publication US20220324835A1 (Nurix Therapeutics, Inc., priority 2018, published 2022).
Like-named read-outs stand apart in the source and are kept apart here.

How the values were obtained:
[1] = tested on: T-cell; experiment: IL-2 secretion from T-cells co-stimulated with anti-CD3 and anti-CD28 antibody (Biological Example 2); format: cell-based, human; conditions: Homo sapiens, T-cell, primary human total T-cells
In short: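 T-cells were stimulated with anti-CD3 antibody alone or with anti-CD28 antibody, in the presence or absence of Cbl-b inhibitor. IL-2 secretion or CD25 surface staining was measured, and values expressed as fold over the uninhibited baseline […].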

[2] = tested on: T-cell; experiment: CD25 cell surface staining on T-cells stimulated with anti-CD3 antibody alone (Biological Example 2); format: cell-based, human; conditions: T-cell, fold change over baseline, primary human total T-cells, read-out: CD25 staining Anti-CD3 stimulation; for fold induction at 1 µM: 1 μM Cbl-b inhibitor; for fold induction at 8 µM: 8 μM Cbl-b inhibitor
[3] = molecular target: Cbl-b (Homo sapiens, UniProt Q13191); experiment: Cbl-b activity assay (Cbl-b inhibition assay), TR-FRET of Cbl-b interaction with UbcH5B-Ub; format: biochemical
Sequence of Cbl-b (Q13191 36-427): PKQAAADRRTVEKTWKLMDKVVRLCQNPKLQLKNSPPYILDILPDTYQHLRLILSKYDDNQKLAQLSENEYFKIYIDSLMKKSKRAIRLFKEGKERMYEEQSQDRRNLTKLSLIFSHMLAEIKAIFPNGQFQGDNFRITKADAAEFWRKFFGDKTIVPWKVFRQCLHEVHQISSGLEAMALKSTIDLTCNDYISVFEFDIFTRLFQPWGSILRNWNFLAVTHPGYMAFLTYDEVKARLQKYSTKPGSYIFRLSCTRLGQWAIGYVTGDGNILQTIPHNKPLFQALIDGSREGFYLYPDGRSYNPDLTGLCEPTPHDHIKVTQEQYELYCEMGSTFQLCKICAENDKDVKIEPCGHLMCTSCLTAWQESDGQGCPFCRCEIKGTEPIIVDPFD
In short: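 UbcH5B (C85K) conjugated to N-terminally Bodipy-Fluorescein-labeled ubiquitin served as the fluorescent partner. After compound preincubation, Src kinase (60 nM) with 1 mM ATP and 5 mM MgCl2 (final) was added for 1.5 h, followed by a further 1 h incubation. Some values were obtained with 50 mM NaCl and 30 nM Src.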

[4] = molecular target: Cbl-b (residues 36-427) (Homo sapiens, UniProt Q13191); experiment: Cbl-b binding assay (SPR, Biacore T200); conditions: 20° C., 1:1 binding model
Sequence of Cbl-b (residues 36-427) (Q13191 36-427): as above
In short: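 Steps: capture protein on NeutrAvidin surface; inject compound dilutions (8 or 10 points from 100 or 50 μM) 50 s; allow 90-180 s dissociation; regenerate 20 s with 0.3 M NaCl. Runs at 20° C in HEPES pH 7.5/100 mM NaCl/2% DMSO; 1:1 fitting.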

[5] = fold change over baseline, 0.3 μM Cbl-b inhibitor, read-out: IL-2 secretion Anti-CD3/Anti-CD28 stimulation
[6] = fold change over baseline, 1 μM Cbl-b inhibitor, read-out: IL-2 secretion Anti-CD3/Anti-CD28 stimulation
[7] = fold change over baseline, 4 μM Cbl-b inhibitor, read-out: IL-2 secretion Anti-CD3/Anti-CD28 stimulation
[8] = assay buffer with 100 mM NaCl, 60 nM Src kinase, read-out: Cbl-b activity IC50
[9] = 0.3 μM compound, baseline = anti-CD3/anti-CD28 stimulated cells without inhibitor, read-out: IL-2 secretion, Anti-CD3/Anti-CD28 stimulation, fold change over baseline
[10] = 1 μM compound, baseline = anti-CD3/anti-CD28 stimulated cells without inhibitor, read-out: IL-2 secretion, Anti-CD3/Anti-CD28 stimulation, fold change over baseline
[11] = 4 μM compound, baseline = anti-CD3/anti-CD28 stimulated cells without inhibitor, read-out: IL-2 secretion, Anti-CD3/Anti-CD28 stimulation, fold change over baseline

C[C@H](Sc1nncn1C)c1cccc(NC(=O)c2cc(C(=O)N3CC(O)C3)ccn2)c1 [Compound 148, (S)-4-(3-hydroxyazetidine-1-carbonyl)-N-(3-(1-((4-methyl-4H-1,2,4-triazol-3-yl)thio)ethyl)phenyl)picolinamide]
fold induction at 0.3 µM [1, 5]: < 1
fold induction at 1 µM [1, 6]: < 1
fold induction at 4 µM [1, 7]: < 1
fold induction at 1 µM [2]: < 0.6
fold induction at 8 µM [2]: 0.601 to 0.8
IC50 [3, 8]: 0.301 to 1 µM
Kd [4]: 1 to 3 µM

C[C@H](Cc1nncn1C)c1cccc(NC(=O)c2cccc(S(C)(=O)=O)n2)c1 [Compound 185, (R)-N-(3-(1-(4-methyl-4H-1,2,4-triazol-3-yl)propan-2-yl)phenyl)-6-(methylsulfonyl)picolinamide]
fold induction at 0.3 µM [1, 5]: 1.01 to 2.5
fold induction at 1 µM [1, 6]: 1.01 to 2.5
fold induction at 4 µM [1, 7]: 2.51 to 5
fold induction at 1 µM [2]: < 0.6
fold induction at 8 µM [2]: < 0.6
IC50 [3, 8]: 0.301 to 1 µM
Kd [4]: 1 to 3 µM

Cn1cnnc1C(F)(F)C(C)(F)c1cccc(N2Cc3c(cccc3C(F)(F)F)C2=O)c1 (racemic) [Compound 296, 2-(3-(1,1,2-trifluoro-1-(4-methyl-4H-1,2,4-triazol-3-yl)propan-2-yl)phenyl)-4-(trifluoromethyl)isoindolin-1-one]
fold induction at 0.3 µM [1, 5]: < 1
fold induction at 1 µM [1, 6]: < 1
fold induction at 4 µM [1, 7]: 1.01 to 2.5
fold induction at 1 µM [2]: 0.601 to 0.8
fold induction at 8 µM [2]: 0.601 to 0.8
IC50 [3, 8]: 0.301 to 1 µM
Kd [4]: 3 to 10 µM

C[C@H](Cc1nncn1C)c1cc(NCCO)nc(N2Cc3c(cccc3C(F)(F)F)C2=O)c1 [Compound 357, (R)-2-(6-(2-hydroxyethylamino)-4-(1-(4-methyl-4H-1,2,4-triazol-3-yl)propan-2-yl)pyridin-2-yl)-4-(trifluoromethyl)isoindolin-1-one]
fold induction at 0.3 µM [1, 5]: 1.01 to 2.5
fold induction at 1 µM [1, 6]: 1.01 to 2.5
fold induction at 4 µM [1, 7]: 2.51 to 5
fold induction at 1 µM [2]: 0.601 to 0.8
fold induction at 8 µM [2]: > 1
IC50 [3, 8]: 0.1 to 0.3 µM
Kd [4]: 0.1 to 0.3 µM

Cc1cc(C(=O)Nc2cccc([C@@](C)(F)C(F)(F)c3nncn3C)c2)nc(C2CC2)n1 [Compound 344, (R)-2-Cyclopropyl-6-methyl-N-(3-(1,1,2-trifluoro-1-(4-methyl-4H-1,2,4-triazol-3-yl)propan-2-yl)phenyl)pyrimidine-4-carboxamide]
fold induction at 0.3 µM [1, 5]: 1.01 to 2.5
fold induction at 1 µM [1, 6]: 2.51 to 5
fold induction at 4 µM [1, 7]: > 7.5
fold induction at 1 µM [2]: 0.801 to 1
fold induction at 8 µM [2]: > 1
IC50 [3, 8]: 0.1 to 0.3 µM
Kd [4]: < 0.1 µM

C[C@H](Sc1nncn1C)c1cccc(NC(=O)c2cc(C(F)(F)F)ccn2)c1 [Compound 32, (S)-N-(3-(1-((4-Methyl-4H-1,2,4-triazol-3-yl)thio)ethyl)phenyl)-4-(trifluoromethyl)picolinamide]
fold induction at 0.3 µM [1, 5]: < 1
fold induction at 1 µM [1, 6]: 1.01 to 2.5
fold induction at 4 µM [1, 7]: 1.01 to 2.5
fold induction at 1 µM [2]: 0.601 to 0.8
fold induction at 8 µM [2]: > 1
IC50 ([3]; * assay buffer containing 50 mM NaCl instead of 100 mM NaCl and 30 nM Src kinase instead of 60 nM, read-out: Cbl-b activity IC50 (μM)*): 1 to 3 µM
IC50 [3, 8]: 3 to 10 µM
Kd [4]: 1 to 3 µM

C[C@H](Cc1nncn1C)c1cccc(NC(=O)c2cncc(C(F)(F)F)n2)c1 [Compound 189, (R)-N-(3-(1-(4-methyl-4H-1,2,4-triazol-3-yl)propan-2-yl)phenyl)-6-(trifluoromethyl)pyrazine-2-carboxamide]
fold induction at 0.3 µM [1, 5]: 1.01 to 2.5
fold induction at 1 µM [1, 6]: 2.51 to 5
fold induction at 4 µM [1, 7]: 5 to 7.5
fold induction at 1 µM [2]: 0.601 to 0.8
fold induction at 8 µM [2]: > 1
IC50 [3, 8]: 0.1 to 0.3 µM
Kd [4]: 0.301 to 1 µM

C[C@H](Cc1nncn1C)c1ccnc(NC(=O)c2cccc(C(F)(F)F)n2)c1 [Compound 302, (R)-N-(4-(1-(4-methyl-4H-1,2,4-triazol-3-yl)propan-2-yl)pyridin-2-yl)-6-(trifluoromethyl)picolinamide]
fold induction at 0.3 µM [1, 5]: 2.51 to 5
fold induction at 1 µM [1, 6]: 2.51 to 5
fold induction at 4 µM [1, 7]: > 7.5
fold induction at 1 µM [2]: < 0.6
fold induction at 8 µM [2]: 0.801 to 1
IC50 [3, 8]: 0.301 to 1 µM
Kd [4]: 1 to 3 µM

CC(Sc1nncn1C)c1cc(F)cc(N2Cc3c(cccc3C(F)(F)F)C2=O)c1 [Compound 168, 2-[3-fluoro-5-[(1R)-1-[(4-methyl-1,2,4-triazol-3-yl)sulfanyl]ethyl]phenyl]-4-(trifluoromethyl)isoindolin-1-one]
fold induction at 0.3 µM [1, 5]: 1.01 to 2.5
fold induction at 1 µM [1, 6]: 1.01 to 2.5
fold induction at 4 µM [1, 7]: 1.01 to 2.5
fold induction at 1 µM [2]: 0.801 to 1
fold induction at 8 µM [2]: 0.601 to 0.8
IC50 [3, 8]: 0.301 to 1 µM
Kd [4]: 1 to 3 µM

C[C@H](Sc1nncn1C)c1ccnc(NC(=O)c2cc3c(C(F)(F)F)cccc3[nH]2)c1 [Compound 120, N-[4-[(1S)-1-[(4-methyl-1,2,4-triazol-3-yl)sulfanyl]ethyl]-2-pyridyl]-4-(trifluoromethyl)-1H-indole-2-carboxamide]
fold induction at 0.3 µM [1, 5]: 1.01 to 2.5
fold induction at 1 µM [1, 6]: 1.01 to 2.5
fold induction at 4 µM [1, 7]: 1.01 to 2.5
fold induction at 1 µM [2]: < 0.6
fold induction at 8 µM [2]: < 0.6
IC50 [3, 8]: 0.1 to 0.3 µM
Kd [4]: 0.301 to 1 µM

Cc1conc1C[C@@H](C)c1cccc(NC(=O)c2ccnc(C(F)(F)F)n2)c1 [Compound 213a, (R)-N-(3-(1-(4-methylisoxazol-3-yl)propan-2-yl)phenyl)-2-(trifluoromethyl)pyrimidine-4-carboxamide]
fold induction at 0.3 µM [1, 5]: 1.01 to 2.5
fold induction at 1 µM [1, 6]: 1.01 to 2.5
fold induction at 4 µM [1, 7]: 2.51 to 5
fold induction at 1 µM [2]: 0.801 to 1
fold induction at 8 µM [2]: > 1
IC50 [3, 8]: 0.1 to 0.3 µM
Kd [4]: 0.1 to 0.3 µM

C[C@H](Sc1nncn1C)c1cccc(NC(=O)c2cccc(C(C)(F)F)n2)c1 [Compound 81, (S)-6-(1,1-difluoroethyl)-N-(3-(1-((4-methyl-4H-1,2,4-triazol-3-yl)thio)ethyl)phenyl)picolinamide]
fold induction at 0.3 µM [1, 5]: < 1
fold induction at 1 µM [1, 6]: < 1
fold induction at 4 µM [1, 7]: 2.51 to 5
fold induction at 1 µM [2]: 0.801 to 1
fold induction at 8 µM [2]: > 1
IC50 [3, 8]: 0.1 to 0.3 µM
Kd [4]: 0.301 to 1 µM

Cc1cc2c(c(C3CC3)n1)CN(c1cccc([C@H](C)Cc3nncn3C)c1)C2=O [Compound 372, 4-cyclopropyl-6-methyl-2-{3-[(2R)-1-(4-methyl-4H-1,2,4-triazol-3-yl)propan-2-yl]phenyl}-1H,2H,3H-pyrrolo[3,4-c]pyridin-1-one]
fold induction at 0.3 µM [1, 9]: 1.01 to 2.5
fold induction at 1 µM [1, 10]: 1.01 to 2.5
fold induction at 4 µM [1, 11]: 2.51 to 5
IC50 [3, 8]: 0.301 to 1 µM

Cn1cnnc1C(F)(F)[C@](C)(F)c1cccc(N2Cc3c(cccc3C(F)(F)F)C2=O)c1 [Compound 296a, (R)-2-(3-(1,1,2-trifluoro-1-(4-methyl-4H-1,2,4-triazol-3-yl)propan-2-yl)phenyl)-4-(trifluoromethyl)isoindolin-1-one]
fold induction at 0.3 µM [1, 5]: 1.01 to 2.5
fold induction at 1 µM [1, 6]: 1.01 to 2.5
fold induction at 4 µM [1, 7]: 2.51 to 5
fold induction at 1 µM [2]: 0.601 to 0.8
fold induction at 8 µM [2]: > 1
IC50 [3, 8]: 0.1 to 0.3 µM

C[C@H](Cc1nncn1C)c1cccc(NC(=O)c2cccc(CCO)n2)c1 [Compound 202, 6-(2-hydroxyethyl)-N-[3-[(2R)-1-(4-methyl-4H-1,2,4-triazol-3-yl)propan-2-yl]phenyl]pyridine-2-carboxamide]
fold induction at 0.3 µM [1, 5]: 1.01 to 2.5
fold induction at 1 µM [1, 6]: 1.01 to 2.5
fold induction at 4 µM [1, 7]: 2.51 to 5
fold induction at 1 µM [2]: < 0.6
fold induction at 8 µM [2]: 0.801 to 1
IC50 [3, 8]: 0.301 to 1 µM

CNCc1ccc(C(=O)Nc2cccc([C@H](C)Cc3nncn3C)c2)nc1C1CC1 [Compound 376, (R)-6-cyclopropyl-N-(3-(1-(4-methyl-4H-1,2,4-triazol-3-yl)propan-2-yl)phenyl)-5-((methylamino)methyl)picolinamide]
fold induction at 0.3 µM [1, 9]: 1.01 to 2.5
fold induction at 1 µM [1, 10]: 2.51 to 5
fold induction at 4 µM [1, 11]: > 7.5
IC50 [3, 8]: 0.1 to 0.3 µM

Cn1cnnc1[C@@H]1C[C@@H]1c1cccc(N2Cc3c(ccnc3C(F)(F)F)C2=O)c1 [Compound 369, 2-{3-[(1S,2R)-2-(4-methyl-4H-1,2,4-triazol-3-yl)cyclopropyl]phenyl}-4-(trifluoromethyl)-1H,2H,3H-pyrrolo[3,4-c]pyridin-1-one]
fold induction at 0.3 µM [1, 9]: 1.01 to 2.5
fold induction at 1 µM [1, 10]: 1.01 to 2.5
fold induction at 4 µM [1, 11]: 1.01 to 2.5
IC50 [3, 8]: 0.301 to 1 µM
